Measurements: the supplement of paper PMC10307832

Assays:
Experiment in all cases: relative viability (nuclei count vs DMSO), 5 days (fraction); higher = more cells survive
Vemurafenib + Alpelisib = compound: CCCS(=O)(=O)Nc1ccc(F)c(C(=O)c2c[nH]c3ncc(-c4ccc(Cl)cc4)cc23)c1F [Vemurafenib] + Cc1nc(NC(=O)N2CCC[C@H]2C(N)=O)sc1-c1ccnc(C(C)(C)C(F)(F)F)c1 [Alpelisib] (partner 2 µM)
Method in brief: (§1)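 Nuclei were stained with Hoechst during a one-step fixation (final 0.05% Triton X-100, 1% formaldehyde, 1 ug/ml Hoechst) carried out 5 days after dosing, then counted on 4× images. The cells, lung cancer lines in 1536-well plates, had been dosed by pin tool the day after seeding with one drug alone or a fixed anchor-drug dose plus five library-drug doses (not always all listed) in √10 steps. Relative viability is the nuclei count in treated wells divided by that in vehicle wells, and each value is the median of duplicate plates.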

Alpelisib + Vorinostat = compound: Cc1nc(NC(=O)N2CCC[C@H]2C(N)=O)sc1-c1ccnc(C(C)(C)C(F)(F)F)c1 [Alpelisib] + O=C(CCCCCCC(=O)Nc1ccccc1)NO [Vorinostat] (partner 1 µM)
Method in brief: as §1

OSI-027 + Luminespib = compound: COc1cccc2cc(-c3nc([C@H]4CC[C@H](C(=O)O)CC4)n4ncnc(N)c34)[nH]c12 [OSI-027] + CCNC(=O)c1noc(-c2cc(C(C)C)c(O)cc2O)c1-c1ccc(CN2CCOCC2)cc1 [Luminespib] (partner 0.01 µM)
Method in brief: as §1

Vemurafenib = compound: CCCS(=O)(=O)Nc1ccc(F)c(C(=O)c2c[nH]c3ncc(-c4ccc(Cl)cc4)cc23)c1F [Vemurafenib]
Method in brief: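 Hoechst staining, done together with fixation and permeabilisation, marked nuclei for 4× imaging and MetaXpress counting. This followed 5 days without medium change after lung cancer cell lines, kept overnight at 37 °C in 1536-well plates, were pinned with five library-drug doses (not always all listed) spaced by √10 on vehicle-anchored plates. Viability is the ratio of treated-well to vehicle-well nuclei, expressed as a median across plates. Plates passed only at control CV below 25% with at least one doubling.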

Q: UMC-11 was tested. Which relative viability (Vemurafenib + Alpelisib; first compound 0.03162 µM) did it give?
A: 0.954

Q: And the relative viability (Vemurafenib + Alpelisib; first compound 0.1 µM)?
A: 0.947

Q: And the relative viability (Vemurafenib + Alpelisib; first compound 0.3162 µM)?
A: 1.09

Q: And the relative viability (Vemurafenib + Alpelisib; first compound 1 µM)?
A: 0.91

Q: And the relative viability (Alpelisib + Vorinostat; first compound 0.04 µM)?
A: 0.374

Q: And the relative viability (Alpelisib + Vorinostat; first compound 0.1265 µM)?
A: 0.31

Q: And the relative viability (Alpelisib + Vorinostat; first compound 0.4 µM)?
A: 0.403

Q: And the relative viability (Alpelisib + Vorinostat; first compound 1.265 µM)?
A: 0.344

Q: And the relative viability (Alpelisib + Vorinostat; first compound 4 µM)?
A: 0.31

Q: And the relative viability (OSI-027 + Luminespib; first compound 0.01 µM)?
A: 1.04

Q: What about the relative viability (OSI-027 + Luminespib; first compound 0.03162 µM) of the same cell line?
A: 0.949

Q: And the relative viability (OSI-027 + Luminespib; first compound 0.1 µM)?
A: 0.783

Q: And the relative viability (OSI-027 + Luminespib; first compound 0.3162 µM)?
A: 0.637

Q: What about the relative viability (OSI-027 + Luminespib; first compound 1 µM) of the same cell line?
A: 0.551

Q: What about the relative viability (Vemurafenib; 0.03162 µM) of the same cell line?
A: 0.923

Q: What about the relative viability (Vemurafenib; 0.1 µM) of the same cell line?
A: 1.02

Q: What about the relative viability (Vemurafenib; 0.3162 µM) of the same cell line?
A: 0.876

Q: And the relative viability (Vemurafenib; 1 µM)?
A: 0.777
